Source: PubChem BioAssay (NCI)
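Five compound concentrations were applied to cells in 96-well plates for 48 hours; endpoints were derived by simple linear interpolation of the resulting dose-response curve. Abbreviation: GI50, concentration required for 50% inhibition of growth. TGI: concentration producing complete growth inhibition.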 Where a SMILES comes first, the peptide text is derived from it. The star is where a group is joined. Cbz = O=C(OCc1ccccc1)*; Bn = c1ccc(C*)cc1

Key:
Experiment in all cases: NCI tumour cell line growth inhibition, 48 h
[1] = test system: DLD-1 colon
[2] = test system: SNB-78 CNS
[3] = test system: A549 NSCLC
[4] = test system: DMS 273 small cell lung
[5] = test system: U251 CNS
[6] = test system: P388/ADR leukemia
[7] = test system: HCT-116 colon
[8] = test system: SK-MEL-5 melanoma
[9] = test system: IGROV1 ovarian
[10] = test system: HL-60(TB) leukemia
[11] = test system: CCRF-CEM leukemia
[12] = test system: UACC-62 melanoma
[13] = test system: OVCAR-8 ovarian
[14] = test system: MDA-MB-231 breast
[15] = test system: DU-145 prostate

## CCn1c(=O)c(C(=O)O)c(Cl)c2cc3c(cc21)OCO3
[1]
  TGI: > 100 µM
[2]
  TGI: > 100 µM
[3]
  TGI: > 100 µM
[4]
  TGI: > 100 µM
[5]
  TGI: > 100 µM
[6]
  TGI: > 100 µM
[7]
  TGI: > 100 µM
[8]
  TGI: > 100 µM
[9]
  TGI: > 100 µM
[10]
  TGI: > 100 µM
[11]
  TGI: > 100 µM
[12]
  TGI: > 100 µM
[13]
  TGI: > 100 µM

## CC(=O)OCC1OC(NC(=O)N(CCCl)N=O)C(OC(C)=O)C(OC(C)=O)C1OC(C)=O (stereo unspecified)
[1]
  TGI: > 100 µM
[2]
  TGI: > 100 µM
[3]
  TGI: > 100 µM
[4]
  TGI: > 100 µM
[5]
  TGI: > 100 µM
[6]
  TGI: > 100 µM
[7]
  TGI: > 100 µM
[8]
  TGI: > 31.6 µM
[9]
  TGI: > 100 µM
[10]
  TGI: > 100 µM
[11]
  TGI: > 100 µM
[12]
  TGI: > 100 µM
[13]
  TGI: > 100 µM

## CC1C[C@]2(C[C@@H](C)C(=O)O2)OC2CC3(C)C4CCC5C(C)(C)OC(=O)CC[C@@]56C[C@@]46CC[C@]3(C)C12 (stereo partly specified)
[1]
  TGI: > 100 µM
[2]
  TGI: > 100 µM
[3]
  TGI: > 100 µM
[4]
  TGI: > 100 µM
[5]
  TGI: > 100 µM
[7]
  TGI: > 100 µM
[8]
  TGI: > 100 µM
[9]
  TGI: > 100 µM
[10]
  TGI: > 100 µM
[11]
  TGI: > 100 µM
[13]
  TGI: > 100 µM

## c1ccc(-c2n(Cc3ccc4ccccc4c3)c3ccccc3[n+]2Cc2ccc3ccccc3c2)cc1
[14]
  GI50: 0.289 µM
  TGI: 1.3 µM
[15]
  GI50: 0.441 µM
  TGI: 1.64 µM
[8]
  GI50: 0.175 µM
  TGI: 0.326 µM
[12]
  GI50: 0.224 µM
  TGI: 0.76 µM

## N=C(N)c1ccc(-c2ccc(-c3ccc4ccccc4c3)s2)s1
[14]
  GI50: 1.85 µM
  TGI: 3.73 µM
[15]
  GI50: 1.83 µM
  TGI: 3.44 µM
[8]
  GI50: 14.7 µM
  TGI: 28 µM
[10]
  GI50: 1.81 µM
  TGI: 5.11 µM
[12]
  GI50: 2.1 µM
  TGI: 4.37 µM

## COC(=O)C(Cc1ccc(O)cc1)NC(=O)C(COCc1ccccc1)NC(=O)OCc1ccccc1 (stereo unspecified) (Cbz-Ser(Bn)-Tyr-OMe; configuration not given here)
[14]
  TGI: 33.1 µM
[3]
  TGI: 35.7 µM
[5]
  TGI: 33.5 µM
[15]
  TGI: 31.8 µM
[7]
  TGI: 35.7 µM
[8]
  TGI: 31.4 µM
[9]
  TGI: 32.3 µM
[10]
  TGI: > 100 µM
[11]
  TGI: > 100 µM
[12]
  TGI: 31.1 µM
[13]
  TGI: 31.8 µM

## C1CSCCSCSCCS1
[14]
  TGI: > 100 µM
[3]
  TGI: > 100 µM
[5]
  TGI: > 100 µM
[15]
  TGI: > 100 µM
[7]
  TGI: > 100 µM
[8]
  TGI: > 100 µM
[9]
  TGI: > 100 µM
[12]
  TGI: > 100 µM
[13]
  TGI: > 100 µM

## COc1ccc(-c2oc3cc(OC(C)=O)cc(OC(C)=O)c3c(=O)c2OC)cc1
[14]
  TGI: 63.7 µM
[3]
  TGI: 74.1 µM
[5]
  TGI: 30.6 µM
[15]
  TGI: 45.2 µM
[7]
  TGI: 44.3 µM
[8]
  TGI: 25 µM
[9]
  TGI: 38 µM
[10]
  TGI: 33.9 µM
[11]
  TGI: 49.6 µM
[12]
  TGI: 22.7 µM
[13]
  TGI: 53.6 µM

## CCCCSCC(NC(=O)/C=C/c1c(C)[nH]c(=O)[nH]c1=O)C(=O)OC (stereo unspecified)
[1]
  TGI: 275 µM
[2]
  TGI: 303 µM
[3]
  TGI: 401 µM
[4]
  TGI: 264 µM
[5]
  TGI: 147 µM
[6]
  TGI: > 450 µM
[7]
  TGI: 246 µM
[8]
  TGI: 176 µM
[9]
  TGI: 316 µM
[10]
  TGI: 206 µM
[11]
  TGI: 245 µM
[12]
  TGI: 198 µM
[13]
  TGI: 246 µM

## C=CCOCCC(CC=C)C(=O)CC(=O)OC (stereo unspecified)
[1]
  TGI: > 100 µM
[3]
  TGI: > 100 µM
[4]
  TGI: > 100 µM
[5]
  TGI: > 100 µM
[7]
  TGI: > 100 µM
[8]
  TGI: > 100 µM
[9]
  TGI: > 100 µM
[10]
  TGI: > 100 µM
[11]
  TGI: > 100 µM
[12]
  TGI: > 100 µM
[13]
  TGI: > 100 µM

## CS(=O)(=O)c1ccc2nc(-c3ccc(O)cc3)sc2c1
[14]
  TGI: 42.5 µM
[3]
  TGI: 34.3 µM
[5]
  TGI: 39.5 µM
[15]
  TGI: 29.6 µM
[7]
  TGI: 30.5 µM
[8]
  TGI: 31.8 µM
[9]
  TGI: 34.9 µM
[10]
  TGI: 63.9 µM
[11]
  TGI: > 100 µM
[12]
  TGI: 34.4 µM
[13]
  TGI: 42.7 µM
